Data as given in article PMC3562233 (PLoS ONE, 2013).
Values joined by “and” are separate entries in the source; they are usually repeats but may differ in a detail not shown here. Equal entries are not always repeated. “Also recorded” adds a separate entry of the source. Structures can show the parent of a compound that is named as a salt. Where two headings read alike, the source gives them in different places.

Experiments:
[1] = biological target: T1, WT M2 (Influenza A virus, UniProt P0DOF5); assay: cell-based; set-up: expressed in transfected cells; host or cells: Saccharomyces cerevisiae, multicopy plasmid, GAL1 promoter; settings: for EC50: yeast expressing WT M2, growth measured after 40 h; for growth of the strain expressing WT M2: 27% of control without amantadine, 48 h
Target sequence in this assay (P0DOF5 whole entry): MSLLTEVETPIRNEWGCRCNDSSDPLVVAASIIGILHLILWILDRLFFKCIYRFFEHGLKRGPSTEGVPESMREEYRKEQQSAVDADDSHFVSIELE

[2] = tested on: influenza A/Udorn/72 WT virus; type: cell-based
[3] = biological target: T1, WT M2; assay: cell-based; settings: for inhibition at 100 µM: read-out: % inhibition at 100 µM in TEVC WT
Target sequence in this assay (P0DOF5 whole entry, looked up): as the sequence (P0DOF5 whole entry) above

[4] = in vitro; settings: dog
Method: Cytotoxicity towards MDCK cells was assayed after 48 h drug exposure with the MTT tetrazolium dye assay as described [55].

[5] = tested on: M2 channel; set-up: method as in PMID 20570509; settings: weaker than amantadine; cited from earlier work
[6] = biological target: mammalian Na+/H+ exchanger; set-up: method as in PMID 3016497; settings: read-out: apparent Ki; cited from earlier work
[7] = read-out: EC50, yeast growth restoration

Q: For `Cc1cc(C(=O)NC2C3CC4CC(C3)CC2C4)no1` (centres unmarked) [Compound 11, N-(adamantan-2-yl)-5-methyl-1,2-oxazole-3-carboxamide], which EC50 [1, 7] is on record?
A: 1500 nM

Q: For `CCSC1=NCN(C2CCCCCCC2)CN1` [Compound 34, 3-cyclooctyl-6-(ethylthio)-1,2,3,4-tetrahydro-1,3,5-triazine], which “inhibition of plaque formation” value [2] is on record?
A: completely inhibited; also recorded: moderate inhibition

Q: And the inhibition at 100 µM [3]?
A: 89.7%

Q: What about the CC50 [4] of the same compound?
A: 75000 nM

Q: And the EC50 ([1]; EC50, yeast growth restoration)?
A: 300 nM

Q: For `CCSC1=NCN(Cc2cccs2)CN1` [Compound 29, 6-(ethylthio)-3-(thiophen-2-ylmethyl)-1,2,3,4-tetrahydro-1,3,5-triazine], which inhibition at 100 µM [3] is on record?
A: 6.7 ± 1.4%

Q: Which “% inhibition at 100 µM in TEVC WT” value [3] does the source give for `CCN(c1nc(N)c(C(=O)NC(=N)N)nc1Cl)C(C)C` [Compound 21, 5-(N-Ethyl-N-isopropyl)amiloride] here?
A: moderate inhibition

Q: What about the inhibition at 100 µM [3] of the same compound?
A: 47.3 ± 0.5%

Q: With `O=[N+]([O-])c1ccccc1CNC1C2CC3CC(C2)CC1C3` (centres unmarked) [Compound 5, 2-adamantyl (2-nitrobenzyl)amine] as the compound, how does the EC50 [1, 7] read?
A: 5000 nM

Q: Which results are given for `CC(NC(=S)NC(=O)C=Cc1ccco1)C12CC3CC(CC(C3)C1)C2` (centres unmarked) [Compound 6, N-(([1-(1-adamantyl)ethyl]amino)carbonothioyl)-3-(2-furyl)acrylamide]?
A: inhibition of plaque formation [2]: almost completely inhibited; CC50 [4]: > 30000 nM; EC50 ([1]; EC50, yeast growth restoration): 200 nM and < 1000 nM

Q: With `Cn1cccc1CNC1CCCCCCC1` [Compound 19, N-[(1-methyl-1H-pyrrol-2-yl)methyl] cyclooctanamine] as the compound, how does the EC50 [1, 7] read?
A: 30000 nM

Q: With `Cc1ncc(C23CC4CC(CC(C4)C2)C3)[nH]1` [Compound 10, 5-(adamantan-1-yl) -2-methyl-1H-imidazole] as the compound, how does the “inhibition of plaque formation” value [2] read?
A: almost completely inhibited

Q: What about the CC50 [4] of the same compound?
A: > 100000 nM

Q: And the EC50 ([1]; EC50, yeast growth restoration)?
A: < 1000 nM and 300 nM

Q: For `CN(C)c1nc(N)c(C(=O)NC(=N)N)nc1Cl` [Compound 20, 5-(N,N-Dimethyl)amiloride hydrochloride], which “% inhibition at 100 µM in TEVC WT” value [3] is on record?
A: moderate inhibition

Q: And the inhibition at 100 µM [3]?
A: 23.3 ± 1.9%

Q: Which inhibition at 100 µM [3] does the source give for `CSC1=NCN(Cc2ccccc2)CN1` [Compound 18, 3-benzyl-6-(methylthio)-1,2,3,4-tetrahydro-1,3,5-triazine hydroiodide] here?
A: 4.5%

Q: What about the EC50 [1, 7] of the same compound?
A: 12000 nM

Q: Which “% inhibition at 100 µM in TEVC WT” value [3] does the source give for `Br.CSC1=NCN(C(C)(C)C)CN1` [Compound 25, 3-(tert-butyl)-6-(methylthio)-1,2,3,4-tetrahydro-1,3,5-triazine hydrobromide] here?
A: 13.3 ± 1.5

Q: With `CCSC1=NCN(Cc2ccccc2)CN1` [Compound 28, 3-benzyl-6-(ethylthio)-1,2,3,4-tetrahydro-1,3,5-triazine] as the compound, how does the inhibition at 100 µM [3] read?
A: 5.4 ± 1.6%

Q: With `CNCC(=O)C12CC3CCC(CC(C3)C1)C2` [Compound 8, 2-(methylamino)-1-tricyclo[4.3.1.1~3,8~] undec-1-ylethanone hydrochloride] as the compound, how does the EC50 [1, 7] read?
A: 3000 nM

Q: Which “% inhibition at 100 µM in TEVC WT” value [3] does the source give for `CCSC1=NCN(CC(C)(C)C)CN1` [Compound 32, 6-(ethylthio)-3-neopentyl-1,2,3,4-tetrahydro-1,3,5-triazine] here?
A: 4.7 ± 1.3

Q: Which “% inhibition at 100 µM in TEVC WT” value [3] does the source give for `Br.CSC1=NCN(CCCO)CN1` [Compound 26, 3-(4-(methylthio)-5,6-dihydro-1,3,5-triazin-1(2H)-yl)propan-1-ol hydrobromide] here?
A: 5.5 ± 0.9

Q: Which inhibition at 100 µM [3] does the source give for `CCSC1=NCN(CCc2cccs2)CN1` [Compound 30, 6-(ethylthio)-3-(2-(thiophen-2-yl)ethyl)-1,2,3,4-tetrahydro-1,3,5-triazine] here?
A: 1.1 ± 1.1%

Q: What does the source list for `CCSC1=NCN(CC2CCCCC2)CN1` [Compound 33, 3-(cyclohexylmethyl)-6-(ethylthio)-1,2,3,4-tetrahydro-1,3,5-triazine]?
A: inhibition at 100 µM [3]: 63.9 ± 2%; EC50 [1, 7]: 700 nM

Q: Which “% inhibition at 100 µM in TEVC WT” value [3] does the source give for “3-(2-methylbut-3-yn-2-yl)-6-(methylthio)-1,2,3,4-tetrahydro-1,3,5-triazine hydroiodide [Compound 27]” here?
A: 17.0 ± 1.9

Q: Which “binding affinity relative to amantadine” value [5] does the source give for `NC1CCCCCCC1` [Cyclooctylamine] here?
A: 6 fold

Q: With `CS/C(=N/C#N)NC12CC3CC(CC(C3)C1)C2` [Compound 7, (E)-methyl N-((3s,5s,7s)-adamantan-1-yl)-N'-cyanocarbamimidothioate] as the compound, how does the EC50 [1, 7] read?
A: 12000 nM

Q: Which inhibition at 100 µM [3] does the source give for `CCSC1=NCN(CC(C)C)CN1` [Compound 31, 6-(ethylthio)-3-isobutyl-1,2,3,4-tetrahydro-1,3,5-triazine] here?
A: 1.2 ± 0.6%

Q: With `CSC1=NCN(Cc2cccs2)CN1` [Compound 23, 6-(methylthio)-3-(thiophen-2-ylmethyl)-1,2,3,4-tetrahydro-1,3,5-triazine] as the compound, how does the inhibition at 100 µM [3] read?
A: 8.1 ± 1.7%

Q: Which EC50 [1, 7] does the source give for `CCc1noc(C)c1C(=O)NCC12CC3CC(CC(C3)C1)C2` [Compound 9, N-(adamantan-1-ylmethyl)-3-ethyl-5-methyl-1,2-oxazole-4-carboxamide] here?
A: 800 nM and < 1000 nM

Q: Which inhibition at 100 µM [3] does the source give for `CCSC1=NCN(Cc2ccco2)CN1` [Compound 24, 6-(ethylthio)-3-(furan-2-ylmethyl)-1,2,3,4-tetrahydro-1,3,5-triazine] here?
A: 17.9 ± 2.8%

Q: For `C1CNC(NCC23CC4CC(CC(C4)C2)C3)=N1` [Compound 12, N-(adamantan-1-ylmethyl)-4,5-dihydro-1H-imidazol-2-amine hydroiodide], which EC50 [1, 7] is on record?
A: 400 nM and < 1000 nM

Q: With `OCC1CCCN1CC12CC3CC(CC(C3)C1)C2` (centres unmarked) [Compound 13, [1-(adamantan-1-ylmethyl)pyrrolidin-2-yl] methanol hydrochloride] as the compound, how does the EC50 [1, 7] read?
A: 15000 nM

Q: What does the source list for `O=[N+]([O-])c1ccc(CNC23CC4CC(CC(C4)C2)C3)cc1` [Compound 4, 1-adamantyl (4-nitrobenzyl)amine]?
A: inhibition at 100 µM [3]: 43.5%; EC50 [1, 7]: 5000 nM

Q: Which EC50 [1, 7] does the source give for `O=C1NC(=S)NC(=O)C1=CNC12CC3CC(CC(C3)C1)C2` [Compound 1, 5-[(1-adamantylamino)methylene]-2-thioxodihydro-4,6(1H,5H)-pyrimidinedione] here?
A: 2500 nM

Q: Which inhibition at 100 µM [3] does the source give for `NC(N)=NC(=O)c1nc(Cl)c(N2CCCCCC2)nc1N` [Compound 14, Hexamethylene amiloride] here?
A: 89.9%

Q: And the Ki [6]?
A: 200 nM

Q: What about the CC50 [4] of the same compound?
A: 16000 nM

Q: And the EC50 ([1]; EC50, yeast growth restoration)?
A: 1100 nM and 1000 nM

Q: With `NC12CC3CC(CC(C3)C1)C2` [Amantadine, reference compound] as the compound, how does the inhibition at 100 µM [3] read?
A: 92%

Q: What about the CC50 [4] of the same compound?
A: ~100000 nM

Q: And the “growth of the strain expressing WT M2” value ([1]; 0.3 µM amantadine)?
A: 65 % of control

Q: And the “growth of the strain expressing WT M2” value ([1]; 1 µM amantadine)?
A: 95 % of control

Q: And the growth increase ([1]; 1 µM, 384-well plate assay, yeast expressing WT M2)?
A: 3 fold

Q: And the “growth of the strain expressing WT M2” value ([1]; 3 µM amantadine)?
A: 95 % of control

Q: With `CC(=O)Nc1ccc(S(=O)(=O)NC23CC4CC(CC(C4)C2)C3)cc1` [Compound 2, N1-(4-[(1-adamantylamino)sulfonyl]phenyl)acetamide] as the compound, how does the EC50 [1, 7] read?
A: 5000 nM

Q: For `c1cc2c(cc1NC1C3CC4CC(C3)CC1C4)OCO2` (centres unmarked) [Compound 3, 2-adamantyl (1,3-benzodioxol-5-yl)amine], which EC50 [1, 7] is on record?
A: 20000 nM

Q: With `C=C1C(N)CC2CC1C2(C)C` (stereo not drawn) [Compound 15, 3-amino-beta-pinene] as the compound, how does the EC50 [1, 7] read?
A: 500 nM and < 1000 nM
